Measured values: ChEMBL document CHEMBL5532759, “Discovery of dibenzylbutane lignan LCA derivatives as potent anti-inflammatory agents” (RSC Med Chem, 2024)
Active and inactive are the calls of the source. No cut-off for these calls is given here.

What was measured:
[1] = Cytotoxicity against mouse RAW264.7 cells assessed as survival rate at 20 uM incubated for 24 hrs by CCK-8 assay relative to control (reference value: 100 %); format: toxicity, cell-based; conditions: read-out: Survival
[2] = test system: RAW264.7; experiment: Antiinflammatory activity in LPS-induced mouse RAW264.7 cells assessed as inhibition of NO release at 20 uM preincubated for 4 hrs followed by LPS addition for 24 hrs by Griess reagent based assay relative to control (reference value: 100 %); format: functional; parameters: scale not given: the % may be the effect or the level left; conditions: time 28 hrs
[3] = test system: Mus musculus; experiment: Antiinflammatory activity against carrageenan-induced paw edema in ip dosed ICR mouse assessed as reduction in TNF-alpha level by ELISA method; format: functional, organism-based; conditions: dose 5-20 mg/kg
[4] = test system: RAW264.7; experiment: Antiinflammatory activity in LPS-induced mouse RAW264.7 cells assessed as inhibition of NO release preincubated for 4 hrs followed by LPS addition for 24 hrs by Griess reagent based assay; format: functional, cell-based; conditions: dose 2.5-20 µM, time 28.0 hrs
[5] = test system: RAW264.7; experiment: Antiinflammatory activity in LPS-induced mouse RAW264.7 cells assessed as reduction in IL-6 mRNA level preincubated for 1 hr followed by LPS addition for 24 hrs by RT-qPCR analysis; format: functional, cell-based; conditions: dose 10-20 µM, time 25.0 hrs
[6] = test system: RAW264.7; experiment: Inhibition of NF-kB signaling in LPS-induced mouse RAW264.7 cells assessed as reduction in p65 phosphorylation preincubated for 1 hr followed by LPS addition for 1 hr by Western blot analysis; format: cell-based; conditions: dose 10-20 µM, time 2.0 hrs
[7] = test system: RAW264.7; experiment: Inhibition of NF-kB p65 nuclear translocation from cytoplasm to nucleus in mouse RAW264.7 cells at 20 uM preincubated for 1 hr followed by LPS addition for 4 hrs by immunofluorescence assay; format: functional, cell-based; conditions: time 5.0 hrs
[8] = test system: RAW264.7; experiment: Inhibition of NF-kappaB signaling in LPS-induced mouse RAW264.7 cells assessed as reduction in IkBalpha degradation preincubated for 1 hr followed by LPS addition for 1 hr by Western blot analysis; format: cell-based; conditions: dose 10-20 µM, time 2.0 hrs
[9] = test system: RAW264.7; experiment: Antiinflammatory activity in LPS-induced mouse RAW264.7 cells assessed as inhibition of IL-6 secretion at 2.5 to 20 uM preincubated for 1 hr followed by LPS addition for 24 hrs by ELISA method; format: functional, cell-based; conditions: dose 2.5-20 µM, time 25.0 hrs
[10] = test system: Mus musculus; experiment: Antiinflammatory activity against carrageenan-induced paw edema in ip dosed ICR mouse assessed as reduction in IL-6 level by ELISA method; format: functional, organism-based; conditions: dose 5-20 mg/kg
[11] = test system: Mus musculus; experiment: Antiinflammatory activity against carrageenan-induced paw edema in ip dosed ICR mouse assessed as reduction in IL-1beta level by ELISA method; format: functional, organism-based; conditions: dose 5-20 mg/kg
[12] = test system: RAW264.7; experiment: Antiinflammatory activity in LPS-induced mouse RAW264.7 cells assessed as inhibition of TNFalpha secretion at 2.5 to 20 uM preincubated for 1 hr followed by LPS addition for 24 hrs by ELISA method; format: functional, cell-based; conditions: dose 2.5-20 µM, time 25.0 hrs
[13] = test system: RAW264.7; experiment: Antiinflammatory activity in LPS-induced mouse RAW264.7 cells assessed as reduction in IL-1beta mRNA level preincubated for 1 hr followed by LPS addition for 24 hrs by RT-qPCR analysis; format: functional, cell-based; conditions: dose 10-20 µM, time 25.0 hrs
[14] = test system: Mus musculus; experiment: Antiinflammatory activity against carrageenan-induced paw edema in ICR mouse assessed as inhibition of paw swelling at 5 to 20 mg/kg, ip measured after 120 min; format: functional, organism-based; conditions: dose 5-20 mg/kg
[15] = test system: RAW264.7; experiment: Antiinflammatory activity in LPS-induced mouse RAW264.7 cells assessed as inhibition of IL-1beta secretion at 2.5 to 20 uM preincubated for 1 hr followed by LPS addition for 24 hrs by ELISA method; format: functional, cell-based; conditions: dose 2.5-20 µM, time 25.0 hrs
[16] = test system: RAW264.7; experiment: Antiinflammatory activity in LPS-induced mouse RAW264.7 cells assessed as reduction in TNFalpha mRNA level incubated for 1 hr followed by LPS addition for 24 hrs by RT-qPCR analysis; format: functional, cell-based; conditions: dose 10-20 µM, time 25.0 hrs
[17] = test system: Mus musculus; experiment: Antiinflammatory activity against carrageenan-induced paw edema in ICR mouse assessed as reduction in paw thickness at 5 to 20 mg/kg, ip measured at 60 to 240 mins; format: functional, organism-based; conditions: dose 5-20 mg/kg, time 60-240 min
[18] = test system: Mus musculus; experiment: Antiinflammatory activity against carrageenan-induced paw edema in ICR mouse assessed as inhibition of paw swelling at 20 mg/kg, ip measured after 120 min; format: functional, organism-based
[19] = test system: Mus musculus; experiment: Antiinflammatory activity against carrageenan-induced paw edema in ICR mouse assessed as reduction in paw thickness at 20 mg/kg, ip measured at 60 to 240 mins; format: functional, organism-based; conditions: time 60-240 min

SMILES | viability at 24 h, 20 µM [1] [%] | Activity [2] [%] | other results
COc1cc(C[C@H](C(=O)NCc2ccc(S(C)(=O)=O)cc2)[C@@H](Cc2cc(OC)c(O)c(OC)c2)C(=O)NCc2ccc(S(C)(=O)=O)cc2)cc(OC)c1O | 70 | 63.1 | –
COc1ccc(CNC(=O)[C@@H](Cc2cc(OC)c(O)c(OC)c2)[C@@H](Cc2cc(OC)c(O)c(OC)c2)C(=O)NCc2ccc(OC)cc2OC)c(OC)c1 | 98.4 | 47.6 | –
COc1cc(C[C@H](C(=O)NCc2ccncc2F)[C@@H](Cc2cc(OC)c(O)c(OC)c2)C(=O)NCc2ccncc2F)cc(OC)c1O | 95.9 | 67.9 | –
COc1cc(C[C@H](C(=O)NCc2ccc(C(F)(F)F)cc2)[C@@H](Cc2cc(OC)c(O)c(OC)c2)C(=O)NCc2ccc(C(F)(F)F)cc2)cc(OC)c1O | 99.1 | 31.1 | Activity [3]: Dose-Dependent Effect; Activity [4]: Dose-Dependent Effect; Activity [5]: Dose-Dependent Effect; inhibition [6]: Dose-Dependent Effect; inhibition [7]: Active; inhibition [8]: Dose-Dependent Effect; Activity [9]: Active; Activity [10]: Dose-Dependent Effect; Activity [11]: Dose-Dependent Effect; Activity [12]: Active; Activity [13]: Dose-Dependent Effect; inhibition [14]: Active; Activity [15]: Active; Activity [16]: Dose-Dependent Effect; Activity [17]: Active
COc1cc(/C=C/C(=O)OC[C@H](Cc2cc(OC)c(O)c(OC)c2)[C@@H](COC(=O)/C=C/c2ccc(O)c(OC)c2)Cc2cc(OC)c(O)c(OC)c2)ccc1O | 82.2 | 29.5 | inhibition [4]: Dose-Dependent Effect; inhibition [18]: Active; Activity [19]: Active
COc1cc(C[C@H](C(=O)NCc2cccnc2C(F)(F)F)[C@@H](Cc2cc(OC)c(O)c(OC)c2)C(=O)NCc2cccnc2C(F)(F)F)cc(OC)c1O | 90.7 | 55.1 | –
COc1cc(C[C@H](C(=O)NCc2ccccc2F)[C@@H](Cc2cc(OC)c(O)c(OC)c2)C(=O)NCc2ccccc2F)cc(OC)c1O | 105 | 47.3 | –
COc1cc(C[C@H](C(=O)NCc2ccc(F)cc2F)[C@@H](Cc2cc(OC)c(O)c(OC)c2)C(=O)NCc2ccc(F)cc2F)cc(OC)c1O | 97.5 | 46.5 | –
COc1cccc(CNC(=O)[C@@H](Cc2cc(OC)c(O)c(OC)c2)[C@@H](Cc2cc(OC)c(O)c(OC)c2)C(=O)NCc2cccc(OC)c2)c1 | 100 | 44.2 | –
COc1cc(C[C@H](C(=O)NCc2cccc(C)n2)[C@@H](Cc2cc(OC)c(O)c(OC)c2)C(=O)NCc2cccc(C)n2)cc(OC)c1O | 93.3 | 44.7 | –
COc1cc(CNC(=O)[C@@H](Cc2cc(OC)c(O)c(OC)c2)[C@@H](Cc2cc(OC)c(O)c(OC)c2)C(=O)NCc2ccc(O)c(OC)c2)ccc1O | 96.6 | 49 | –
COc1cc(C[C@H](C(=O)NCc2cccc(F)c2)[C@@H](Cc2cc(OC)c(O)c(OC)c2)C(=O)NCc2cccc(F)c2)cc(OC)c1O | 99.4 | 41.9 | –
COc1cc(C[C@H](C(=O)NCc2ccccc2)[C@@H](Cc2cc(OC)c(O)c(OC)c2)C(=O)NCc2ccccc2)cc(OC)c1O | 103 | 42.6 | –
COc1ccc(CNC(=O)[C@@H](Cc2cc(OC)c(O)c(OC)c2)[C@@H](Cc2cc(OC)c(O)c(OC)c2)C(=O)NCc2ccc(OC)cc2)cc1 | 99.9 | 45.9 | –
COc1cc(C[C@H](C(=O)NCc2cccnc2OC)[C@@H](Cc2cc(OC)c(O)c(OC)c2)C(=O)NCc2cccnc2OC)cc(OC)c1O | 69.9 | 51.1 | –
COc1cc(C[C@H](C(=O)NCc2ccncc2)[C@@H](Cc2cc(OC)c(O)c(OC)c2)C(=O)NCc2ccncc2)cc(OC)c1O | 69.5 | 46.5 | –
COc1cc(C[C@H](C(=O)NCc2cc(F)cc(F)c2)[C@@H](Cc2cc(OC)c(O)c(OC)c2)C(=O)NCc2cc(F)cc(F)c2)cc(OC)c1O | 97.8 | 43.9 | –
COc1cc(C[C@H](C(=O)NCc2ccc(F)cc2)[C@@H](Cc2cc(OC)c(O)c(OC)c2)C(=O)NCc2ccc(F)cc2)cc(OC)c1O | 103 | 43.1 | –
COc1cc(C[C@H](C(=O)NCc2ncccc2C)[C@@H](Cc2cc(OC)c(O)c(OC)c2)C(=O)NCc2ncccc2C)cc(OC)c1O | 85.1 | 66.3 | –
COc1cc(CNC(=O)[C@@H](Cc2cc(OC)c(O)c(OC)c2)[C@@H](Cc2cc(OC)c(O)c(OC)c2)C(=O)NCc2cc(OC)cc(OC)c2)cc(OC)c1 | 99.1 | 49.3 | –
COc1cc(C[C@H](C(=O)NCc2ccccn2)[C@@H](Cc2cc(OC)c(O)c(OC)c2)C(=O)NCc2ccccn2)cc(OC)c1O | 92.2 | 48.1 | –
C[C@@H]1C[C@H]2[C@@H]3CCC4=CC(=O)C=C[C@]4(C)[C@@]3(F)[C@@H](O)C[C@]2(C)[C@@]1(O)C(=O)CO [DEXAMETHASONE] | 94.8 | 45.9 | –
COc1cc(C[C@H](C(=O)NCc2ccc(C)cc2)[C@@H](Cc2cc(OC)c(O)c(OC)c2)C(=O)NCc2ccc(C)cc2)cc(OC)c1O | 95.6 | 47 | –
COc1cc(C[C@H](C(=O)NCc2ccc(F)cn2)[C@@H](Cc2cc(OC)c(O)c(OC)c2)C(=O)NCc2ccc(F)cn2)cc(OC)c1O | 81.3 | 47.1 | –
COc1cc(C[C@H](C(=O)NCc2cc(C)ccn2)[C@@H](Cc2cc(OC)c(O)c(OC)c2)C(=O)NCc2cc(C)ccn2)cc(OC)c1O | 83 | 71.5 | –
